Values of other authors in US20210308040A1, “KETAMINE ORAL TRANSMUCOSAL DELIVERY SYSTEM” (GUANGZHOU DAZHOU BIOMEDICINE LTD., priority 2018, published 2021).

What was measured:
[1] = ketamine 0.3 mg/kg vs morphine 0.1 mg/kg, intravenous push
[2] = in vivo
[3] = not given; remark: listed apart in the source
[4] = 33 CRPS patients; about 23 mg/hr for about 4.7 days
NMDAR = settings: rodent species
[5] = not given; remark: listed apart in the source
orofacial pain = settings: fixed doses
NMDA receptor = settings: in vitro
[6] = system: experimentally induced ischemic pain
[7] = 0 to 24 hours postoperatively; bolus 0.5 mg/kg and infusion 0.25 mg/kg/hr

CNC1(c2ccccc2Cl)CCCCC1=O (racemic) [ketamine]
primary change in mean pain scores versus morphine [1]: no significant differences | onset of antidepressant effect after administration [2]: ≤ 2 h | absolute oral bioavailability (humans): 10-20% | half-life (in vivo): 2 to 3 h | systemic (primarily hepatic) clearance (in vivo): about 19 ml/min·kg | indications of liver toxicity ([3]; 39 clinical trials, IV infusion rate less than 1.2 mg/kg/h, bolus less than 1 mg/kg): no indications of liver toxicity | reduction of opioid consumption ([3]; low-dose intravenous (IV) ketamine): 40% | mean immediate response (% relief) [4]: ≤ 92% | patients with alteration in hepatic enzyme profile [4]: four patients | patients with hallucinations [4]: six patients

C[C@]12N[C@H](Cc3ccccc31)c1ccccc12 [MK-801]
effect on analgesia (NMDAR): anti-analgesic effect

CN[C@@]1(c2ccccc2Cl)CCCCC1=O [R-ketamine]
psychotomimetic side effects and abuse liability ([5]; animal models): free of psychotomimetic side effects and abuse liability | antidepressant effectiveness versus S-ketamine ([5]; model animal studies): more effective as an antidepressant than S-ketamine

CN[C@]1(c2ccccc2Cl)CCCCC1=O [S-ketamine]
potency relative to racemic ketamine (orofacial pain): 2 times | potency in NMDAR binding relative to R-ketamine (NMDA receptor): about 4 times | in vivo potency difference between the two enantiomers [6]: about 4 times | mean difference in morphine consumption versus placebo [7]: 42 mg
